This is an account of results in patent US20040053355A1, “Modular approach to on-line synthesis, drug discovery and biochemical transformations using immobilized enzyme reactors” (priority 2000, published 2004).

Experiment [1] addresses T1, immobilized DBH (dopamine β-hydroxylase) (Bos taurus, UniProt P15101).
T1 construct: purchased
T1 sequence (P15101 1-610): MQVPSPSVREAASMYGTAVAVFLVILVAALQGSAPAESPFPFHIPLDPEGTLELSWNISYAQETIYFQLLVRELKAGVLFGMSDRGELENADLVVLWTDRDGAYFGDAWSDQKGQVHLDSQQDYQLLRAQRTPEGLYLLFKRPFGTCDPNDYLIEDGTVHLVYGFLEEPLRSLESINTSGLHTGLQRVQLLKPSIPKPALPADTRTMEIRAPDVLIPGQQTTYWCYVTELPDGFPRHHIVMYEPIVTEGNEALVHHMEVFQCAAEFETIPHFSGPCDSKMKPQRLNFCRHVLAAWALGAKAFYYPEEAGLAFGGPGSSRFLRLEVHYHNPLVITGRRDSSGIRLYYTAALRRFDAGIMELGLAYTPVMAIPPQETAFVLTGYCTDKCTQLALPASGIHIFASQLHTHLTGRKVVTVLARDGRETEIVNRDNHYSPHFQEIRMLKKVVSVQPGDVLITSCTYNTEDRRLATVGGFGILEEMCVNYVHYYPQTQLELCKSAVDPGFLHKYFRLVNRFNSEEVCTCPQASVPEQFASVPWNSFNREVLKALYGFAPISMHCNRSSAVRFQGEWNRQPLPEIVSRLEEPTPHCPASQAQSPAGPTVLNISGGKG
Put plainly: Captopril inhibition of immobilized DBH, batch assay (support not specified). In kind it is biochemical, bovine. The protocol:
(§1) The enzyme was assayed as follows: four different solutions were prepared A, B, C and D (final concentration). (A) 500 μL of enzyme solution (10 μg/ml); B: 275 μL sodium acetate buffer (10 mM, pH 5.5), 50 μL cupric sulphate (5 μM); C: 25 μL catalase (5 μg/ml), 50 μL ascorbic acid (10 mM), 50 μl sodium fumarate (10 mM); D: 50 μl substrate (5 mM). Solution B was added to solution A, the resulting solution was mixed for 1 min. Solution C was added and the resulting solution was mixed for an additional minute. The reaction was started with the addition of the substrate (D), after which the reaction solution was incubated for 5 min at 37° C. in a shaking bath. The reaction was stopped by the addition of 100 μl of cold hexane, the resulting mixture was centrifuged at 3000×g for 10 min and the supernatant transferred to the pre-conditioned phenylboronic acid cartridges in order to extract the product formed and the remaining substrate. Extracted samples were directly injected onto the HPLC under either chiral or achiral conditions.
The effect of captopril on immobilized DBH kinetics is represented in the form of a reciprocal velocity plot versus the reciprocal of the concentration of tyramine. […] The slope and intercept replots were linear (r>0.995).

Experiment [2] deals with T2, DBH-Glut-P IMER (immobilized dopamine beta-hydroxylase) (Bos taurus, UniProt P15101).
T2 construct: purchased
T2 sequence (P15101 1-610): T1 sequence (P15101 1-610)
Put plainly: On-line DBH-Glut-P immobilized enzyme reactor (DBH-Glut-P IMER) HPLC system. The experiment is classed as biochemical, bovine. The text has this: DBH immobilized on the IAM or Glut-P stationary phase was packed into a 1 cm×10 mm guard (Regis Technologies). The guard was placed in a holder and the resulting column connected to a chromatographic system. THE DBH-IAM-IMER and the DBH-Glut-P-IMER was washed with sodium acetate buffer [0.1M, pH 5.5] and sodium acetate buffer [0.1M, pH 6.0], respectively. The eluent from both IMERs was collected in order to determine if any of the DBH was being washed off the columns. The Biorad assay was utilized to measure the amount of non-immobilized enzyme. When the columns were not in use they were washed with sodium acetate buffer at the respective pHs and stored at 4° C.
Pumps 2 and 3 on system 2 and 3 were stopped. 100 μl of a substrate/cofactor mixture is loaded into the injector (i) and the valve is switched to the inject position at the same time the witching valve (SV) is switched such that substrate/product are eluted from the DBH-IMERs and concentrated onto the PBA column of system 2.The second pump was started and mobile phase A was pumped through the PBA column at a flow rate of 0.1 ml/min for 30 sec in order to elute, ascorbic acid and any other by-products produced from the reaction. The pump was then switched to mobile phase B with a flow rate of 0.1 ml/min for 2 min and simultaneously SV1 was switched such that unreacted substrate and product formed were concentrated on the analytical columns of System 3. When the specific contact time elapses the SV2 is switched back to the original position and the pump 3 is started.
The enzymatic activity on the DBH-Glut-P was determined by quantification of the amount of product formed with a given substrate. The temperature of the IMER unless otherwise stated was kept at 37° C. with a column heater. Stock solutions of tyramine were prepared in water. […] The kinetic parameters were determined using standard Michaelis-Menten approach. […] The rates of reaction (Vmax) were calculated using […]mol/mg/min. Results are expressed as mean±standard error of the mean (SEM). […]

Experiment [3] deals with T3, dopamine beta-hydroxylase (Homo sapiens, UniProt P09172).
T3 sequence (P09172 1-617): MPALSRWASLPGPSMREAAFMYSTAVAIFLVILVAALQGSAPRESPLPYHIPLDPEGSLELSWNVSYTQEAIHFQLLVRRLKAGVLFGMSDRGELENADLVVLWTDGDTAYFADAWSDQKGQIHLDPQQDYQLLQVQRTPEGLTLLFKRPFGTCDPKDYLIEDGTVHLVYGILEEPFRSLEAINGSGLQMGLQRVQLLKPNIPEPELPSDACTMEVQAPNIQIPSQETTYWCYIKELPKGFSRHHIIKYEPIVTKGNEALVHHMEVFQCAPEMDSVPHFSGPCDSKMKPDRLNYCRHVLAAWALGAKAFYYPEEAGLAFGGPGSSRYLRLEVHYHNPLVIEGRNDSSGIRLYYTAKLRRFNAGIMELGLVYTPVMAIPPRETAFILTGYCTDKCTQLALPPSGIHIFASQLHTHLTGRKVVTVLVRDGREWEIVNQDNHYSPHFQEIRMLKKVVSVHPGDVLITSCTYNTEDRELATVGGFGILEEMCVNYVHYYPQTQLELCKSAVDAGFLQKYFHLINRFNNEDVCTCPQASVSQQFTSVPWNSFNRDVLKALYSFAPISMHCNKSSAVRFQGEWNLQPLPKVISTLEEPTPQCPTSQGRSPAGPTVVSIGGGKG
Particulars: 140 μM captopril; Cu2+ as CuSO4; Palatini et al., 1989; cited from earlier work.

Experiment [4] concerns the target T4, dopamine beta-hydroxylase (DBH), non-immobilized (Bos taurus, UniProt P15101).
T4 construct: purchased
T4 sequence (P15101 1-610): T1 sequence (P15101 1-610)
Put plainly: Non-immobilized DBH activity assay, batch incubation with HPLC-fluorescence analysis. The experiment is classed as biochemical, bovine. The protocol:
The solutes were quantitated using fluorescence detection with excitation at λ=265 nm and no cut-off filter for emission. A flow rate of 1 ml/min and ambient temperature were used throughout the study.
Enzymatic conversions utilizing DBH require cupric sulphate, catalase, ascorbic acid and sodium fumarate. An off-line extraction method utilizing solid phase extraction cartridges containing a phenylboronic acid stationary phase was developed. The procedure consisted of the following: 1-ml cartridges were conditioned with 2 ml of methanol followed by 2 ml of sodium phosphate buffer (0.1M, pH 8.4). One ml of reaction mixture was added, the cartridge was then washed with 1 ml sodium phosphate buffer (0.1M, pH 8.4) and the substrate and product were eluted using 1 ml of 0.1N HCl. The eluate was directly injected onto the HPLC system.
as §1

Experiment [5] deals with T5, dopamine beta-hydroxylase immobilized onto Glut-P (DBH-Glut-P) (Bos taurus, UniProt P15101).
T5 construct: purchased
T5 sequence (P15101 1-610): T1 sequence (P15101 1-610)
Put plainly: DBH immobilized onto Glut-P stationary phase (DBH-Glut-P, DBH-Glut-P-SP), batch assay. The note with it: hydrochloride. The experiment is classed as biochemical, bovine. The protocol:
The enzyme was assayed as follows: four different solutions were prepared A, B, C and D (final concentration). (A) 500 μL of enzyme solution (10 μg/ml); B: 275 μL sodium acetate buffer (10 mM, pH 5.5), 50 μL cupric sulphate (5 μM); C: 25 μL catalase (5 μg/ml), 50 μL ascorbic acid (10 mM), 50 μl sodium fumarate (10 mM); D: 50 μl substrate (5 mM). Solution B was added to solution A, the resulting solution was mixed for 1 min. Solution C was added and the resulting solution was mixed for an additional minute. The reaction was started with the addition of the substrate (D), after which the reaction solution was incubated for 5 min at 37° C. in a shaking bath. […]
The packing material was washed three times with sodium acetate buffer (0.1M, pH 6). […] The enzyme solution (8-10 μg in 1 ml sodium acetate buffer] was added to the packing material, the mixture was vortexed for 2 min and then placed on a shaker/rotator for 6 h at ambient temperature. At the end of 6 h, the suspension was centrifuged, the supernatant decanted and the packing material washed three additional times with the buffer. The amount of residual enzyme was determined utilizing the same procedure as that carried out for the enzyme immobilized onto IAM.

For orientation: IC50 means the concentration that inhibits the measured activity by half.

Consider `C[C@H](CS)C(=O)N1CCC[C@H]1C(=O)O` [Captopril, captopril], for which the “cupric sulphate concentration achieving reversal of the inhibition” value in experiment [1] (enzyme form not stated) stood at 2.5 µM. In experiment [1] (immobilized DBH, tyramine as varied substrate), the “type of inhibition with respect to tyramine (reciprocal velocity plot)” value is “noncompetitive inhibition”. Also, the “inhibition of DBH mediated formation of octopamine from tyramine” value in experiment [1] (immobilized enzyme, concentrations as low as 150 μM) was “approximately 50%”; in experiment [4] (non-immobilized enzyme, concentrations as low as 150 μM), “approximately 50%”. The “concentration as low as which the IMER is inhibited” value in experiment [2] (DBH-Glut-P IMER) came to 50 µM. The IC50 in experiment [2] (on-line injection of substrate/cofactor/inhibitor mixtures, read-out: IC50 DBH-Glut-P IMER) came to 120 µM; in experiment [4] (read-out: IC50 DBH (Non-immobilized)) it was 150 µM. Besides, the “Cu^2+ concentration giving reversal of the inhibition” value in experiment [3] is 1.5 µM.
As for `Cl.NCCc1ccc(O)cc1` [Tyramine, tyramine hydrochloride], the Vmax in experiment [5] is recorded as 0.112^− μmol/mg/min.
